Assay results from PubChem BioAssay AID2837 (The Scripps Research Institute Molecular Screening Center, 2010).
Activity calls are given as the source filed them.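 The calls were made as follows: active = IC50 of 10 µM or lower; inactive = IC50 above 10 µM.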

The molecules below were run against Guanyl-specific ribonuclease T1 (Aspergillus oryzae (strain ATCC 42149 / RIB 40)) (UniProt P00651) (assay: dose-dependent blockade of Aspergillus RNase T1 – biochemical, fluorescence polarization, IC50, counter-screen for TPT1 inhibitor project, late-stage follow-up (AID 2837)). Details: RNase T1 cleavage of B-U6G-AF.
Guanyl-specific ribonuclease T1 (Aspergillus oryzae (strain ATCC 42149 / RIB 40)), sequence (P00651 whole entry, looked up): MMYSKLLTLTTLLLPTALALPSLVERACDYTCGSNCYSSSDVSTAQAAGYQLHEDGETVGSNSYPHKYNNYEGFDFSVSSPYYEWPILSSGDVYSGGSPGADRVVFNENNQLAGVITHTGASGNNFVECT

Compound | IC50
CC1=C(C#N)C(=O)N(C2CCS(=O)(=O)C2)C(=O)/C1=C\c1ccco1 (stereo not given) | > 49.8 µM (inactive)
COc1ccc(OC)c(N2C(=O)/C(=C/c3ccco3)C(=O)NC2=S)c1 | inactive
Cc1cc(C)n(Cc2ccc(C(=O)NN=Cc3ccc(-c4ccc([N+](=O)[O-])cc4)o3)o2)n1 | inactive
Cc1ccc(N2C(=O)NC(=O)/C(=C\c3ccc([N+](=O)[O-])o3)C2=O)cc1 | inactive
O=c1oc2c(O)c(O)cc3c(=O)oc4c(O)c(O)cc1c4c23 | > 49.8 µM (inactive)
NC(=O)c1cc[n+](CC2=C(C(=O)O)N3C(=O)[C@@H](NC(=O)C(c4ccccc4)S(=O)(=O)O)[C@H]3SC2)cc1 (stereo not given in full) | > 49.8 µM (inactive)
OC(Cn1cncn1)(Cn1cncn1)c1ccc(F)cc1F | > 49.8 µM (inactive)
NS(=O)(=O)c1cc(C(=O)NC2CCSc3ccccc32)ccc1Cl (stereo not given) | > 49.8 µM (inactive)
Cc1ccccc1N1C(=O)/C(=C/c2ccco2)C(=O)NC1=S | inactive
Cc1[nH]n(-c2ccc(S(=O)(=O)O)cc2)c(=O)c1N[N-]c1ccc(C2=CC(=O)/C(=N\[N-]c3ccc4c(S(=O)(=O)O)cc(S(=O)(=O)O)c(N)c4c3O)C=C2)cc1O.[Cu+].[Cu+] | > 49.8 µM (inactive)
